Data taken from ChEMBL document CHEMBL1201862, “PubChem BioAssay data set” (2004).
Blank lines part the entries; values can stand above or below the molecule they belong to. Calls of active or inactive are those of the source.

Columns and labels:
Mu-type opioid receptor [1] = target: T1, Mu-type opioid receptor (Homo sapiens, UniProt P35372); experiment: mu opioid receptor activators, image-based, SAR follow-up (AID 2352); format: functional
[2] = target: T2, Delta-type opioid receptor (Homo sapiens, UniProt P41143); experiment: DOR agonists, SAR follow-up, image-based (AID 2370); format: functional
[3] = target: T3, Kappa-type opioid receptor (Homo sapiens, UniProt P41145); experiment: kappa opioid receptor blockers, image-based, SAR follow-up (AID 2348); format: functional
Mu-type opioid receptor [4] = target: T1, Mu-type opioid receptor; experiment: mu opioid receptor blockers – image-based, SAR follow-up (AID 2420); format: functional;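 further: compounds added before stimulation of receptor with agonist DAMGO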
[5] = target: T3, Kappa-type opioid receptor; experiment: kappa opioid receptor activation potency – imaging, image-based, SAR follow-up (AID 2359); format: functional
[6] = target: T2, Delta-type opioid receptor; experiment: delta opioid receptor blockers – image-based, SAR follow-up (AID 2357); format: functional
[7] = target: T3, Kappa-type opioid receptor; experiment: kappa opioid receptor blockers, cell-based, luminescence, beta-arrestin, SAR follow-up (AID 2285); format: functional
Large T antigen = Large T antigen (Simian virus 40, UniProt P03070); format: functional, Betapolyomavirus macacae;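 further: Confirmatory-stage PubChem screen for compounds that inhibit SV40 T antigen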
ORF 73 = ORF 73 (Human herpesvirus 8, UniProt O40947); experiment: KSHV LANA DNA-binding disruption – biochemical, fluorescence polarization, cherry-picked samples, dose response (AID 504725); design: species or system Human gammaherpesvirus 8;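 further: fluorescence polarization of a labeled DNA duplex reporting LANA DNA binding; potency is for inhibitors that block LANA binding to the DNA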
[8] = target: Intestinal-type alkaline phosphatase (Homo sapiens, UniProt P09923); experiment: activation of human intestinal alkaline phosphatase – biochemical, dose response (AID 488873); format: functional
[9] = target: Intestinal-type alkaline phosphatase (Mus musculus, UniProt P24822); experiment: mouse intestinal alkaline phosphatase activators, dose response, biochemical, luminescence, uHTS hits (AID 488783); format: functional
[10] = target: T4, Alkaline phosphatase, tissue-nonspecific isozyme (Homo sapiens, UniProt P05186); experiment: activation of tissue-nonspecific alkaline phosphatase – biochemical, TNAP isozyme, mouse IAP uHTS hits, selectivity assay for mouse IAP activator project, dose response (AID 488880); format: functional
T4 sequence (P05186 whole entry): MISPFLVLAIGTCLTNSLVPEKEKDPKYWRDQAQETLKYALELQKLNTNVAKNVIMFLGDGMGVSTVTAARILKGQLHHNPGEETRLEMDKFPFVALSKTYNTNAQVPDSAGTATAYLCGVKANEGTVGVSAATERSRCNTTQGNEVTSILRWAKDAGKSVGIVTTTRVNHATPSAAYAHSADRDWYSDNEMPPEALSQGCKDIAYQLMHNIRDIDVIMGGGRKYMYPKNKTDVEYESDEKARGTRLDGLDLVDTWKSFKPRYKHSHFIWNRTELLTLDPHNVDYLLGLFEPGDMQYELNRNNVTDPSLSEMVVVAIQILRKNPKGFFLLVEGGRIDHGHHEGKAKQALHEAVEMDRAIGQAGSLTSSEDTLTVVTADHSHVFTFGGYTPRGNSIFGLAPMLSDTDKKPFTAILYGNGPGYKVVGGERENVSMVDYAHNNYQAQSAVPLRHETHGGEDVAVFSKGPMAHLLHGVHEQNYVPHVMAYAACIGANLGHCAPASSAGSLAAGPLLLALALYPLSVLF

[11] = target: T5, Rac GTPase-activating protein 1 (Homo sapiens, UniProt Q9H0H5); experiment: blockers of MgcRacGAP-driven Rac1 GTP hydrolysis – biochemical, ADP Hunter fluorescence, primary and confirmatory, confirmation (AID 624330); format: functional
T5 sequence (Q9H0H5 whole entry): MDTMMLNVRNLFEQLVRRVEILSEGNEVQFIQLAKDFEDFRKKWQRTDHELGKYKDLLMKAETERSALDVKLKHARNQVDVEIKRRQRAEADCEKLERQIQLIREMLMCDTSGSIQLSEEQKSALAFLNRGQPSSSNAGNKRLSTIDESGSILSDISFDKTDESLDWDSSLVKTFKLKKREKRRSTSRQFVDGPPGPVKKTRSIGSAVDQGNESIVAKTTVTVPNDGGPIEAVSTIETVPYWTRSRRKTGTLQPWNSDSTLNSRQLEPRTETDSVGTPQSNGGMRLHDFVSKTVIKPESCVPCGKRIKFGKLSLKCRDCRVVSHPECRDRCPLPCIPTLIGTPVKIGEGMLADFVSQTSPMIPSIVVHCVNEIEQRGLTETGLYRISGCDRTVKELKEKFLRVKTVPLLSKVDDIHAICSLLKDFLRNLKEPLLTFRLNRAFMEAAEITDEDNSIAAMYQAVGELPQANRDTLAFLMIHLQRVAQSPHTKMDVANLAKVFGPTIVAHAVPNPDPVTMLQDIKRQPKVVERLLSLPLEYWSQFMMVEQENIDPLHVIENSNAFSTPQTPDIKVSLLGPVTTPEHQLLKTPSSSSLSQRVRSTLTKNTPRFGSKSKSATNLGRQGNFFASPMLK

[12] = target: T6, Histone-lysine N-methyltransferase NSD2 (Homo sapiens, UniProt O96028); format: biochemical
T6 sequence (O96028 whole entry): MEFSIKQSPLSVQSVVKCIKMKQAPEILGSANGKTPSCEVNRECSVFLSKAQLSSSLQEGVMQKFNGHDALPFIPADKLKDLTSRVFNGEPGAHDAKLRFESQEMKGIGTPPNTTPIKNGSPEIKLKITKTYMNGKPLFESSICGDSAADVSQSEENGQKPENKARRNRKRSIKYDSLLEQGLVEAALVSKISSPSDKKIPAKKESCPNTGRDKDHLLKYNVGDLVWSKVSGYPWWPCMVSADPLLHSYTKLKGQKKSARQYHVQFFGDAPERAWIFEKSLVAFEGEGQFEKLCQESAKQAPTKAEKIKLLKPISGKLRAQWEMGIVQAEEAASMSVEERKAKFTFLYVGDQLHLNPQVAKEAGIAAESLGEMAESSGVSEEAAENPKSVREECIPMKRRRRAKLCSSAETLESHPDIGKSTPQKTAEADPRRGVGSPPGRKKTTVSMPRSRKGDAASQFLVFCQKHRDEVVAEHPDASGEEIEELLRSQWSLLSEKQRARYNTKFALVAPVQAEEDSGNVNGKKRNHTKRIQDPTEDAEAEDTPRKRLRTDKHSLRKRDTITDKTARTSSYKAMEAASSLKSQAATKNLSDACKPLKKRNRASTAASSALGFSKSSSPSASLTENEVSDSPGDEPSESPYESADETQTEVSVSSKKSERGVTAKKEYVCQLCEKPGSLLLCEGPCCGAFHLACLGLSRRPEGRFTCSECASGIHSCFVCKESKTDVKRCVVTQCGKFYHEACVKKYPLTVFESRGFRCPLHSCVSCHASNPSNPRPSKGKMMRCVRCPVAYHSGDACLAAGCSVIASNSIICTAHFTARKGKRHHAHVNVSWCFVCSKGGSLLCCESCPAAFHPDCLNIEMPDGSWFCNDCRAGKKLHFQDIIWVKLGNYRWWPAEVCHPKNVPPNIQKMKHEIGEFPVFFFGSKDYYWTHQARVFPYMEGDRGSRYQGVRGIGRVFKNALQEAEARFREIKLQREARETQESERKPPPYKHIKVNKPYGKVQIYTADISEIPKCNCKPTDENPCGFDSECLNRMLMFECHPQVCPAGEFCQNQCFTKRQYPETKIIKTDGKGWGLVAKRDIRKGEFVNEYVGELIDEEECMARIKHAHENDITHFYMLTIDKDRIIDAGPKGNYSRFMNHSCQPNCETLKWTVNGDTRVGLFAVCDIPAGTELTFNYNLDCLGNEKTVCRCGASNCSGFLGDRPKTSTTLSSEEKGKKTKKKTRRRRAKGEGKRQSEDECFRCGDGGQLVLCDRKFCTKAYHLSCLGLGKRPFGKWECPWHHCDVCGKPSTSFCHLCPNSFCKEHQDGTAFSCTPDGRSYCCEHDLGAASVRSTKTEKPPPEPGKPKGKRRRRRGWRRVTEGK

[13] = target: T3, Kappa-type opioid receptor; experiment: kappa opioid receptor activation by imaging – image-based, set 3, SAR follow-up (AID 488833); format: functional
Mu-type opioid receptor [14] = target: T1, Mu-type opioid receptor; experiment: SAR Analysis of Agonists of the MOR Receptor using an Image-Based Assay - Set 3. [Related pubchem assays (depositor defined):AID1777, AID1785, AID1786, AID1966, AID2133, AID2136, AID2284, AID2285, AID2352]; format: functional
[15] = target: T2, Delta-type opioid receptor; experiment: SAR Analysis of Agonists of the DOR Receptor using an Image-Based Assay - Set 3. [Related pubchem assays (depositor defined):AID1777, AID1786]; format: functional
[16] = target: T3, Kappa-type opioid receptor; experiment: SAR analysis of small molecule agonists of the kappa opioid receptor via a luminescent beta-arrestin assay - Set 3. [Related pubchem assays (depositor defined):AID1777, AID1785, AID1786, AID1966, AID2133, AID2136, AID2284, AID2500]; format: functional

T3 sequence (P41145 whole entry): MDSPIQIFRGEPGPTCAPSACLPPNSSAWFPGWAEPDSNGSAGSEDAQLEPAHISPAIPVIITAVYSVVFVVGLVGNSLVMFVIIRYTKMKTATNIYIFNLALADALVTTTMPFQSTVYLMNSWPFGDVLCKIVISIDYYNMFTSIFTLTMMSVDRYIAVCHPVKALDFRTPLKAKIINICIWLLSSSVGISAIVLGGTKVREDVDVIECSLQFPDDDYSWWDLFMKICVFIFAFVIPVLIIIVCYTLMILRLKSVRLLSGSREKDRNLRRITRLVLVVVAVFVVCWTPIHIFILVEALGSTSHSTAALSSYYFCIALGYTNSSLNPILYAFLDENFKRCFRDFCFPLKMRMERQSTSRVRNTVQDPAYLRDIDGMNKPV
T2 sequence (P41143 whole entry): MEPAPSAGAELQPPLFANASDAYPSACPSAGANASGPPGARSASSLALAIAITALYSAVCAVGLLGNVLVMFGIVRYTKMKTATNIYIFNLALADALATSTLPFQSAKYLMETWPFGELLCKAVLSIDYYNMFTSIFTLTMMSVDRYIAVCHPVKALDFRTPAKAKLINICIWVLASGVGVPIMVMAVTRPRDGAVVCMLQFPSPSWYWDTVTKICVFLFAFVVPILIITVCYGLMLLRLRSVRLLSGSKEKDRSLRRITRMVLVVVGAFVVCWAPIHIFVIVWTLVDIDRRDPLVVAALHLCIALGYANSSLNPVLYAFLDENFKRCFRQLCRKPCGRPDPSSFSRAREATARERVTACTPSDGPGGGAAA
T1 sequence (P35372 whole entry): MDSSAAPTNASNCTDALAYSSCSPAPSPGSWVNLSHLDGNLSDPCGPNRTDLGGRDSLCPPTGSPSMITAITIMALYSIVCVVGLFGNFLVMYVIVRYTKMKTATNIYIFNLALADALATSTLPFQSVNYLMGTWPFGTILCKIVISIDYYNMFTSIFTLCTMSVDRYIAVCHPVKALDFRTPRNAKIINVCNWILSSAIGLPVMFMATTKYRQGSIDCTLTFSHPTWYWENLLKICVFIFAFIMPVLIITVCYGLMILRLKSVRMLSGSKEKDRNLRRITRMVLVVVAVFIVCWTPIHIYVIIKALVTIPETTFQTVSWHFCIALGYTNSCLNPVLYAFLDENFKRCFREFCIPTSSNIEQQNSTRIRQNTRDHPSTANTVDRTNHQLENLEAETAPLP
Sequence of Large T antigen (P03070 whole entry): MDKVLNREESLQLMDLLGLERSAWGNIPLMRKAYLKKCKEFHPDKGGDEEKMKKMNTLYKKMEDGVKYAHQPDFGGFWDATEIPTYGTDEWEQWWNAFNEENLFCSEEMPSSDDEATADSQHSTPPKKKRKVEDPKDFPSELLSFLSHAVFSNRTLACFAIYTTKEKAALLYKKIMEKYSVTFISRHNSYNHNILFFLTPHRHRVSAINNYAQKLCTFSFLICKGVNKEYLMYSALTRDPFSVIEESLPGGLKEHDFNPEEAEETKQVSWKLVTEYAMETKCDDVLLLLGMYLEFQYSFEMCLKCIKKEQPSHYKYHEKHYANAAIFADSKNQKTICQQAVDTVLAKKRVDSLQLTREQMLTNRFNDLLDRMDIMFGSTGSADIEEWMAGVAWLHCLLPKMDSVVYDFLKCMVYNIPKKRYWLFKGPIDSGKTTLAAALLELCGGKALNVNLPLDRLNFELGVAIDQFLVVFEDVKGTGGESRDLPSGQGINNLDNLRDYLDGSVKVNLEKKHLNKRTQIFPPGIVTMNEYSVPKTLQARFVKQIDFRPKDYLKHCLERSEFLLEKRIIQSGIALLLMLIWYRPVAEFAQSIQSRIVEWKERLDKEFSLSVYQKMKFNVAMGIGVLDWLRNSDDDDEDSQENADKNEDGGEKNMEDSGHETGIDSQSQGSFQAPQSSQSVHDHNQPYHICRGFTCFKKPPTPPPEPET
Sequence of Intestinal-type alkaline phosphatase (Homo sapiens, UniProt P09923) (P09923 whole entry): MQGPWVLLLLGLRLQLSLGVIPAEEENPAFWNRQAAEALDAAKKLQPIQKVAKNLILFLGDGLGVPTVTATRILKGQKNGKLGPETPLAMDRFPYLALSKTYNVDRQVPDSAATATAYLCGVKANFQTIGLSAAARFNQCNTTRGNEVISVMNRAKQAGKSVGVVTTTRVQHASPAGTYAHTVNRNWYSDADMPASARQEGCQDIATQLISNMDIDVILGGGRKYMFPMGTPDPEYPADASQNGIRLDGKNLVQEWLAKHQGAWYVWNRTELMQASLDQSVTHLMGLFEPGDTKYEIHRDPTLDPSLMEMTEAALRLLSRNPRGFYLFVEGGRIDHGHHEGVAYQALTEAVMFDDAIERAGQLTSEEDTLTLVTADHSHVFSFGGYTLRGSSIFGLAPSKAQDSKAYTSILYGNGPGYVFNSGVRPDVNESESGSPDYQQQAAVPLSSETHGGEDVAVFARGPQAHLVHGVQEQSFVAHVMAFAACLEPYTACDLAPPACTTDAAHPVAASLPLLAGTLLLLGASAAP
Sequence of ORF 73 (O40947 whole entry): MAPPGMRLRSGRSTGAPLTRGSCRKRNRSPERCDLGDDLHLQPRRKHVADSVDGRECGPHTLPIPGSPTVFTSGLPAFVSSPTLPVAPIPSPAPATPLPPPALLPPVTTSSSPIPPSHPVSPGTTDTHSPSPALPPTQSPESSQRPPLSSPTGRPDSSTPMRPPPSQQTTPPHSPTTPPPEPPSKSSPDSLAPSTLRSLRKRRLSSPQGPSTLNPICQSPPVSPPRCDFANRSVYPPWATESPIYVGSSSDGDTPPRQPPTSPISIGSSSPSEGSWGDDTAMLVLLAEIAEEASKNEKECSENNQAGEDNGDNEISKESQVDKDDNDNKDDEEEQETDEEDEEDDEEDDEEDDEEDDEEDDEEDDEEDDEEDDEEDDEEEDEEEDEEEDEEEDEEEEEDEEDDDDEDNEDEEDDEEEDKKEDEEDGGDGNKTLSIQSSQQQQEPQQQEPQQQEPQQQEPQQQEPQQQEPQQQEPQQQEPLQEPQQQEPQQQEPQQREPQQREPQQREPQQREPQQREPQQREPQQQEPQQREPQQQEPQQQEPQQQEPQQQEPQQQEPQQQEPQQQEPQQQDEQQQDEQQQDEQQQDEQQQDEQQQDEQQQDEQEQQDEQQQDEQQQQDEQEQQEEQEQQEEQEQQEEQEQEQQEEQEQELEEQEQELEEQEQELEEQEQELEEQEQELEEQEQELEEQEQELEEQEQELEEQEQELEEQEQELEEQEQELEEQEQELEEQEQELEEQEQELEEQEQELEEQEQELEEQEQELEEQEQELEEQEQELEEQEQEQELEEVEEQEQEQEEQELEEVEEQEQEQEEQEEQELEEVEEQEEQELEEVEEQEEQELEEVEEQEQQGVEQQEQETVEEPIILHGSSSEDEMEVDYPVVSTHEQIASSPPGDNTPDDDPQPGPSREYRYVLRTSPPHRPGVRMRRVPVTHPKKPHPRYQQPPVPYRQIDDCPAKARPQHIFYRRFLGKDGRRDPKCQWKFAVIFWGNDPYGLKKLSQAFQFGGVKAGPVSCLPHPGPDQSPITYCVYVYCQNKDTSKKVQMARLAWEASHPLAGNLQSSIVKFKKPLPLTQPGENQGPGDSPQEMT
Sequence of Intestinal-type alkaline phosphatase (Mus musculus, UniProt P24822) (P24822 whole entry): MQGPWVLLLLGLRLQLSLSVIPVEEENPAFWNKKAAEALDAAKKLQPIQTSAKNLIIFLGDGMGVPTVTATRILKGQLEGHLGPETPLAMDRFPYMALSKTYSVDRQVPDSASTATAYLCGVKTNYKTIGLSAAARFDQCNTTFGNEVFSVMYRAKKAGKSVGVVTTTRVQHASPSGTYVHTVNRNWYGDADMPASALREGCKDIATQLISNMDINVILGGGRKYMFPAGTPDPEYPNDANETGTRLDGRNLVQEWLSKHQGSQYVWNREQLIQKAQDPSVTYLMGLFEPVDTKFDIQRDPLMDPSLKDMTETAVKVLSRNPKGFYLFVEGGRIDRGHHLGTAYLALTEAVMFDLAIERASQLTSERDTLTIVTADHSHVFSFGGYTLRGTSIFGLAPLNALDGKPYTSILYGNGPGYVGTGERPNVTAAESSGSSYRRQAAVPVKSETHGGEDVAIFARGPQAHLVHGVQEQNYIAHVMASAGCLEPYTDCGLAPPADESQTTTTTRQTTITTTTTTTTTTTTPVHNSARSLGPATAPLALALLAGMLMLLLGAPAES

EC50 (Mu-type opioid receptor [1]): > 32 µM (inactive)
EC50 [2]: > 32 µM (inactive)
IC50 [3]: 15.3 µM (inactive)
IC50 (Mu-type opioid receptor [4]): > 32 µM (inactive)
EC50 [5]: > 32 µM (inactive)
IC50 [6]: > 32 µM (inactive)
IC50 [7]: 4.32 µM (active)
SMILES: COc1ccc(N2CCN(CCCNC(=O)Cn3c(=O)c4cccn4c4ccccc43)CC2)cc1

IC50 (Large T antigen): 7.22 µM (active)
AC50 (ORF 73): 161 µM (active)
EC50 [8]: 9.7 µM (active)
EC50 [9]: 100 µM (inactive)
EC50 [10]: 9.2 µM (active)
IC50 [11]: 66 µM (active)
AC50 [12]: 3.26 µM (active)
SMILES: N=C1/C(=C/c2ccc(O)c(O)c2)C(=O)N=C2SC(CC(=O)N3CCCC3)=NN12

EC50 [13]: > 32 µM (inactive)
EC50 (Mu-type opioid receptor [14]): > 32 µM (inactive)
EC50 [15]: > 64 µM (inactive)
EC50 [16]: 15.3 µM (inactive)
SMILES: COc1cccc(CSc2nnc(-c3ccccn3)n2Cc2ccco2)c1
